Results on nine compounds are retold here after patent publication US12552793B2, “Purine derivative and medical use thereof” (KANGBAIDA (SICHUAN) BIOTECHNOLOGY CO., LTD., priority 2019, dated 2026).

Read-outs that look alike come from different tables or passages of the source.

The target in experiment [1] is T1, DNA-PK kinase (Homo sapiens (Human), UniProt P78527). The experiment is described as follows: biochemical.
Procedure: Inhibition of DNA-PK Kinase
(§1) The inhibitory activity of the compounds against DNA-PK kinase was determined using a DNA-PK kinase assay kit (purchased from Promega, Cat. No. V4107, Batch No. 0000366495). The results were quantified using chemiluminescence, specifically as follows: • i. ADP-fluorescence standard curves at different concentrations were constructed according to the instructions of the kit; • ii. reaction systems (5 L) were prepared in a 384-well white plate; 1 μL of a compound (concentration gradients 1 μM, 200 nM, 40 nM, 8 nM, 1.6 nM, 0.32 nM, 0.064 nM and 0.013 nM were set for each compound), 20 units of DNA-PK kinase, 0.2 μg/μL substrate, 10 μg/μL DNA, 50 μM ATP and 1% DMSO were successively added to each well; • iii. the mixtures were well mixed, centrifuged (1000 rpm, 30 s), and incubated at 37° C. for 60 min; • iv. the reactions were terminated by adding 5 μL of ADP-Glo™ Reagent; the mixtures were well mixed, centrifuged (1000 rpm, 30 s), and incubated at room temperature for 40 min; • v. 10 μL of Kinase Detection Reagent was added; the mixtures were well mixed by shaking, centrifuged (1000 rpm, 30 s), and incubated at room temperature for 30 min; • vi. fluorescence values were measured using a microplate reader (Thermo fisher, Varioskan LUX). IC50 was calculated using GraphPad Prism 8.
Experiment [2] deals with T1, DNA-PK kinase.
Procedure: Inhibition of DNA-PK Kinase
as §1

Usually IC50 stands for the concentration needed to halve the response being measured. A higher IC50 goes with a need for much substance.
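Note: enzyme inhibition of DNA-PK with kinase activity read out by chemiluminescence on a microplate reader after adding a kinase detection reagent.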

Turning to `CNC(=O)c1cc(C)c(Nc2ncc3c(n2)n(C24CC5CC(CC(O)(C5)C2)C4)c(=O)n3C)cn1` [Compound 15, 5-((9-(3-Hydroxyadamantan-1-yl)-7-methyl-8-oxo-8,9-dihydro-7H-purin-2-yl)amino)-N,4-dimethylpicolinamide], the IC50 at DNA-PK kinase [1] came out at 1.1 nM. In other words, the single-digit nanomolar range.

As for `Cc1cc2ncnn2cc1Nc1ncc2c(n1)n(C13CC4CC(C1)C(O)C(C4)C3)c(=O)n2C` (stereo not drawn) [Compound 18-2, 9-(4-Hydroxyadamantan-1-yl)-7-methyl-2-((7-methyl-[1,2,4]triazolo[1,5-a]pyridin-6-yl)amino)-7,9-dihydro-8H-purin-8-one], the IC50 against DNA-PK kinase [1] came to 0.13 nM.

Compound `Cc1cc(C(N)=O)c(F)cc1Nc1ncc2c(n1)n(C13CC4CC(C1)C(=O)C(C4)C3)c(=O)n2C` [Compound 25, 2-Fluoro-5-methyl-4-((7-methyl-8-oxo-9-(4-oxoadamantan-1-yl)-8,9-dihydro-7H-purin-2-yl)amino)benzamide] came in with an IC50 against DNA-PK kinase [2] of 0.01 nM. As for `Cc1cc2c(cc1Nc1ncc3c(n1)n(C14CC5CC(C1)C(=O)C(C5)C4)c(=O)n3C)CCO2` [Compound 30, 7-Methyl-2-((6-methyl-2,3-dihydrobenzofuran-5-yl)amino)-9-(4-oxoadamantan-1-yl)-7,9-dihydro-8H-purin-8-one], on DNA-PK kinase [2], the IC50 is 0.08 nM.

`COC1(OC)C2CC3CC1CC(n1c(=O)n(C)c4cnc(Nc5cc6c(cc5C)OCC6)nc41)(C3)C2` [Compound 31, 9-(4,4-Dimethoxyadamantan-1-yl)-7-methyl-2-((6-methyl-2,3-dihydrobenzofuran-5-yl)amino)-7,9-dihydro-8H-purin-8-one] displayed an IC50 against DNA-PK kinase [2] of 0.1 nM. This IC50 and that of the compound before are within 1.5-fold of each other.

Take `Cc1cc2c(cc1Nc1ncc3c(n1)n(C14CC5CC(CC(O)(C5)C1)C4)c(=O)n3C)CCO2` [Compound 32, 9-(3-Hydroxyadamantan-1-yl)-7-methyl-2-((6-methyl-2,3-dihydrobenzofuran-5-yl)amino)-7,9-dihydro-8H-purin-8-one]: the IC50 on DNA-PK kinase [2] came to 2.3 nM. As to `Cn1c(=O)n(C23CC4CC(CC(O)(C4)C2)C3)c2nc(Nc3cc4c(cc3Cl)OCC4)ncc21` [Compound 33, 2-((6-Chloro-2,3-dihydrobenzofuran-5-yl)amino)-9-(3-hydroxyadamantan-1-yl)-7-methyl-7,9-dihydro-8H-purin-8-one], 6.4 nM corresponded to half-maximal inhibition against DNA-PK kinase [2] (IC50). On the same count and under the same terms, the result for `Cc1cc(C(N)=O)c(F)cc1Nc1ncc2c(n1)n(C13CC4CC(CC(C#N)(C4)C1)C3)c(=O)n2C` [Compound 34, 4-((9-(3-Cyanoadamantan-1-yl)-7-methyl-8-oxo-8,9-dihydro-7H-purin-2-yl)amino)-2-fluoro-5-methylbenzamide] reads 7.5 nM. The compound `Cc1cc2ncnn2cc1Nc1ncc2[nH]c(=O)n(C34CC5CC(CC(O)(C5)C3)C4)c2n1` [Compound 36, 9-(3-Hydroxyadamantan-1-yl)-2-((7-methyl-[1,2,4]triazolo[1,5-a]pyridin-6-yl)amino)-7,9-dihydro-8H-purin-8-one] yielded an IC50 against DNA-PK kinase [2] of 0.32 nM.
